Laboratory results as given in the supplement of paper PMC6045584.
± gives the standard deviation of the averaged measurements.

Experiments:
TEMOZOLOMIDE = compound: Cn1nnc2c(C(N)=O)ncn2c1=O [TEMOZOLOMIDE]; test: surviving fraction relative to DMSO-only wells; higher = less growth inhibition; details: exposure time: 5 days
Summary of the method: (§1)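 Inhibitors were tested at 0.5, 1, 5, 10, 50, 100, 500 and 1000 nM, applied continuously for five days beginning 24 hours after log-phase tumour cells were seeded at 250–500 per well in 384-well plates. CellTiter-Glo luminescence served as the viability measure, expressed as surviving fraction against the median of DMSO-only wells. Each line, screened three times, was kept only with replicate Pearson r >0.7 and median Z' >0.3.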

SORAFENIB = compound: CNC(=O)c1cc(Oc2ccc(NC(=O)Nc3ccc(Cl)c(C(F)(F)F)c3)cc2)ccn1 [SORAFENIB]; test: as above; details: exposure time: 5 days
Summary of the method: as §1

Row | Test System | surviving fraction (TEMOZOLOMIDE; 0.5 nM) | surviving fraction (TEMOZOLOMIDE; 1 nM) | surviving fraction (TEMOZOLOMIDE; 5 nM) | surviving fraction (TEMOZOLOMIDE; 10 nM) | surviving fraction (TEMOZOLOMIDE; 50 nM) | surviving fraction (TEMOZOLOMIDE; 100 nM) | surviving fraction (TEMOZOLOMIDE; 500 nM) | surviving fraction (TEMOZOLOMIDE; 1000 nM) | surviving fraction (SORAFENIB; 0.5 nM) | surviving fraction (SORAFENIB; 1 nM) | surviving fraction (SORAFENIB; 5 nM) | surviving fraction (SORAFENIB; 10 nM) | surviving fraction (SORAFENIB; 50 nM) | surviving fraction (SORAFENIB; 100 nM) | surviving fraction (SORAFENIB; 500 nM) | surviving fraction (SORAFENIB; 1000 nM)
1 | SG31 HEADNECK | 0.991 ± 0.11 | 1.07 ± 0.18 | 1.01 ± 0.15 | 1.04 ± 0.013 | 0.922 ± 0.062 | 1.17 ± 0.52 | 1.17 ± 0.24 | 1.12 ± 0.12 | 1.03 ± 0.11 | 1.1 ± 0.11 | 1.09 ± 0.092 | 1.08 ± 0.15 | 1.2 ± 0.31 | 1.07 ± 0.092 | 1.4 ± 0.22 | 1.22 ± 0.13
2 | SG32 HEADNECK | 1.14 ± 0.019 | 1.44 ± 0.39 | 1.19 ± 0.12 | 1.37 ± 0.22 | 1.26 ± 0.071 | 1.13 ± 0.097 | 1.2 ± 0.18 | 1.67 ± 0.62 | 1.2 ± 0.15 | 1.47 ± 0.68 | 1.33 ± 0.044 | 1.42 ± 0.35 | 1.76 ± 0.68 | 1.62 ± 0.26 | 1.53 ± 0.35 | 1.56 ± 0.36
3 | SG43 HEADNECK | 1.11 ± 0.065 | 0.96 ± 0.1 | 0.768 ± 0.047 | 0.882 ± 0.087 | 0.742 ± 0.18 | 0.895 ± 0.24 | 0.895 ± 0.11 | 1.14 ± 0.46 | 0.959 ± 0.085 | 1.19 ± 0.13 | – | 0.97 ± 0.082 | 1.18 ± 0.14 | 1.4 ± 0.095 | 1.98 ± 0.15 | 2.18 ± 0.21
4 | SIHA CERVIX | 0.992 ± 0.024 | 0.996 ± 0.072 | 0.99 ± 0.06 | 1.06 ± 0.076 | 1.02 ± 0.021 | 1.06 ± 0.039 | 0.968 ± 0.044 | 1.02 ± 0.028 | 1.04 ± 0.085 | 1.16 ± 0.11 | 1.089 ± 0.01 | 1.13 ± 0.077 | – | 1.15 ± 0.043 | 1.17 ± 0.16 | 1.17 ± 0.15
5 | SJSA1 BONE | 0.368 ± 0.017 | 1.72 ± 0.054 | 1.64 ± 0.088 | 1.5 ± 0.13 | 1.69 ± 0.041 | 1.64 ± 0.077 | 1.66 ± 0.084 | 1.7 ± 0.11 | 1.02 ± 0.012 | 0.969 ± 0.036 | 0.985 ± 0.048 | – | 1.07 ± 0.041 | 1.03 ± 0.041 | 1 ± 0.11 | 0.967 ± 0.026
6 | SKBR3 BREAST | 1.1 ± 0.052 | 1.11 ± 0.058 | 1.06 ± 0.082 | 1.06 ± 0.069 | 0.983 ± 0.061 | 1.07 ± 0.13 | 1.13 ± 0.04 | 1.07 ± 0.055 | 1.12 ± 0.15 | 1.07 ± 0.22 | 0.978 ± 0.087 | 0.951 ± 0.16 | 0.96 ± 0.16 | 0.95 ± 0.1 | 1.08 ± 0.23 | 1.1 ± 0.053
7 | SNU475 LIVER | 1.004 ± 0.0081 | 1.01 ± 0.025 | 1.01 ± 0.051 | 1.04 ± 0.036 | 1.01 ± 0.034 | 1.06 ± 0.047 | 1.05 ± 0.053 | 1.03 ± 0.022 | 1.08 ± 0.036 | – | 1.04 ± 0.03 | 1.05 ± 0.032 | – | – | 1.17 ± 0.031 | 1.07 ± 0.042
8 | SUM44 BREAST | 1.16 ± 0.26 | 1.19 ± 0.22 | 1.24 ± 0.23 | 1.33 ± 0.5 | 1.19 ± 0.21 | 1.32 ± 0.33 | 1.3 ± 0.28 | 1.3 ± 0.26 | 1.03 ± 0.035 | 0.99 ± 0.041 | 1.03 ± 0.051 | 1.04 ± 0.053 | 1.12 ± 0.035 | 1.11 ± 0.044 | – | 0.974 ± 0.026
9 | SUM149 BREAST | 1.06 ± 0.11 | 1.1 ± 0.067 | 1.1 ± 0.029 | 1.1 ± 0.12 | 1.01 ± 0.056 | 1.16 ± 0.12 | 1.1 ± 0.096 | 1.03 ± 0.022 | 1.18 ± 0.028 | 1.09 ± 0.048 | – | – | – | 1.17 ± 0.051 | – | 1.278 ± 0.0084
10 | SUM149.B1*.S BREAST | 1 ± 0.026 | 1.05 ± 0.023 | 1.08 ± 0.062 | 1.11 ± 0.038 | 1.07 ± 0.067 | 1.13 ± 0.073 | 1.07 ± 0.023 | 1.15 ± 0.085 | 1.1 ± 0.025 | 1.051 ± 0.004 | 1.08 ± 0.05 | 1.05 ± 0.033 | – | 1.202 ± 0.0063 | 0.807 ± 0.024 | 0.609 ± 0.04
11 | SUM159 BREAST | 1.01 ± 0.057 | 1.06 ± 0.035 | 1.039 ± 0.0092 | 1.07 ± 0.024 | 1.02 ± 0.021 | 1.05 ± 0.021 | 1.04 ± 0.029 | 1.06 ± 0.0095 | 0.909 ± 0.23 | 0.956 ± 0.18 | – | 0.936 ± 0.18 | 0.997 ± 0.15 | – | 0.909 ± 0.28 | 0.071 ± 0.043
12 | SYO1 SYNOVIAL | 0.971 ± 0.041 | 1.04 ± 0.064 | 0.965 ± 0.0099 | 1.01 ± 0.048 | 0.986 ± 0.059 | 1.01 ± 0.048 | 0.99733 ± 0.00067 | 1.03 ± 0.016 | 0.9613 ± 0.0017 | 1.02 ± 0.023 | 1.02 ± 0.045 | 0.981 ± 0.017 | 0.968 ± 0.025 | 0.912 ± 0.033 | – | 0.679 ± 0.022
13 | T47D BREAST | 0.982 ± 0.011 | 1.057 ± 0.0064 | 1.04 ± 0.034 | 1.04 ± 0.055 | 1.06 ± 0.053 | 1.1 ± 0.018 | 1.08 ± 0.032 | 1.09 ± 0.025 | 1.083 ± 0.01 | 1.02 ± 0.028 | 1.07 ± 0.053 | 1.02 ± 0.046 | 1.14 ± 0.029 | 1.13 ± 0.018 | 1.149 ± 0.0045 | 1.12 ± 0.039
14 | U2OS BONE | 0.988 ± 0.017 | 0.988 ± 0.034 | 1.04 ± 0.022 | 1.02 ± 0.045 | 1.06 ± 0.029 | 1.06 ± 0.023 | 1.02 ± 0.028 | 1.01 ± 0.023 | 1.01 ± 0.019 | 1.03 ± 0.027 | 1.06 ± 0.05 | 1.05 ± 0.029 | 1.08 ± 0.035 | – | 1.08 ± 0.016 | 1 ± 0.067
15 | VCAP PROSTATE | 0.913 ± 0.1 | 1.09 ± 0.089 | 1.04 ± 0.13 | 1.04 ± 0.082 | 0.967 ± 0.051 | 1.1 ± 0.09 | 0.991 ± 0.039 | 1.08 ± 0.093 | 1.13 ± 0.17 | 1.17 ± 0.11 | 1.19 ± 0.12 | 1.08 ± 0.053 | 1.12 ± 0.21 | – | 1.13 ± 0.16 | 1.02 ± 0.062
16 | VP229 BREAST | 1.18 ± 0.11 | 1.18 ± 0.15 | 1.07 ± 0.17 | 1.23 ± 0.06 | 1.12 ± 0.073 | 1.26 ± 0.21 | 1.15 ± 0.15 | 1.15 ± 0.16 | 0.934 ± 0.11 | 0.939 ± 0.05 | 1.06 ± 0.11 | 1 ± 0.11 | 1.21 ± 0.088 | 1.12 ± 0.17 | 1.31 ± 0.13 | 1.3 ± 0.028
17 | YAMATO SYNOVIAL | 1.14 ± 0.05 | 1.16 ± 0.055 | 1.27 ± 0.13 | 1.35 ± 0.076 | 1.22 ± 0.083 | 1.4 ± 0.1 | 1.31 ± 0.12 | 1.38 ± 0.095 | 1.26 ± 0.054 | 1.24 ± 0.066 | 1.37 ± 0.096 | 1.26 ± 0.078 | 1.44 ± 0.096 | 1.35 ± 0.05 | 1.18 ± 0.088 | 1.04 ± 0.056
18 | ZR751 BREAST | 0.95 ± 0.12 | 0.953 ± 0.032 | 0.981 ± 0.034 | 0.964 ± 0.09 | 0.987 ± 0.15 | 1.04 ± 0.11 | 0.918 ± 0.11 | 1.05 ± 0.06 | 1.08 ± 0.086 | 1.04 ± 0.02 | 0.99 ± 0.056 | 1.02 ± 0.18 | 1.28 ± 0.042 | 1.31 ± 0.19 | – | 1.06 ± 0.072
